# Assay results as given in patent publication US10800812B2, “Compstatin analogs with increased solubility and improved pharmacokinetic properties” (The Trustees of the University of Pennsylvania, priority 2018, dated 2020).
# Where “and” joins values, the source holds several entries; their conditions need not be identical. Equal values may be shown once. Read-outs that look alike come from different tables or passages of the source. Marks after values point to notes of the source that are not given here.
# Assays:
# [1] = Pharmacokinetics in NHP plasma after single s.c. injection; conditions: for AUC(0-t): AUC0-t (0-120 h); for AUC(0-inf): AUCinf
# [2] = Residence time in the vitreous after intravitreal injection (WES / SPR competition assay); assay type: in vivo, cynomolgus monkeys; parameters: detection in the vitreous: dose or concentration left out as unconfirmed; conditions: for detection in the vitreous at time points post-injection: days 14-90
# Method: To determine the residence time of mPEG(3k)-Cp40, mPEG(1k)-Cp40, Cp40-KK, and Cp40-KKK in the vitreous of cynomolgus macaques, these Cp40-based analogs were administered intravitreally (i.v.t.) to the animals after induction of light ketamine anesthesia (10-15 mg/kg, by intramuscular injection (i.m.)) and dilation of the pupils with tropicamide/phenylephrine ophthalmic solution (see Table 6 for study design).
# For i.v.t. injection, the cynomolgus monkeys were anesthetized with a combination of ketamine (15-25 mg/kg, i.m.) and xylazine (2 mg/kg, i.m.) and the eye was cleaned with povidone-iodine solution. After application of oxybuprocaine hydrochloride solution (Benoxil® ophthalmic solution 0.4%) to the cornea as a local anesthetic, the Cp40-based analogs were administered to the animals by i.v.t. injection into either the right (G1, G3) or left (G2, G4) eye of each animal. Immediately following each injection, a single topical dose of 0.5% levofloxacin was administered. After i.v.t. injection of mPEG(3k)-Cp40, mPEG(1k)-Cp40, Cp40-KK, and Cp40-KKK, vitreous fluid samples (about 50 μL each) were withdrawn from Cp40-based analog-treated eyes on days 14, 28, 42, (G1, G2, G3, G4), 56, 73, 90 (G1, G2) (this was done either three times or six times). Samples were collected on ice and stored in a deep freezer (−79.3 to −68.5° C.) until further analysis. On day 73 and 90, about 100 μL of vitreous fluid from G1 and G2 were withdrawn. Presence and concentration of the Cp40-based analogs was determined using either the simple western technology (WES, ProteinSimple, San Jose, Calif.), or surface plasmon resonance (SPR)-based real-time measurement of binding kinetics on a Cp40-KKK immobilized chip (see detailed methods below). Similar results with regard to the intravitreal residence time and concentration levels of the test compounds were obtained regardless of the quantification method selected.
# To quantify the levels of all test compounds in vitreous samples collected at different time points following i.v.t. injection (see FIG. 15), WES analysis was performed on a WES instrument (ProteinSimple, San Jose, Calif.) using a 2 to 40 kDa Separation Module and Anti-Rabbit Detection Module according to the manufacturers' instructions. In brief, undiluted eye vitreous samples were mixed with a Fluorescent Master Mix and heated at 95° C. for 5 min. The samples, blocking reagent, primary antibodies (in house developed anti-Cp40; 1:1000 in blocking reagent), HRP-conjugated secondary antibody (anti-rabbit IgG) and chemiluminescent substrate were pipetted into the plate (part of Separation Module). The used instrument settings were: stacking and separation at 375 V for 27 min; blocking reagent for 30 min, primary and secondary antibody both for 30 min; Luminol/peroxide chemiluminescence detection for ˜15 min (exposures of 5, 15, 30, 60, 120, 240, and 480 s). The resulting electropherograms were evaluated using the Compass software (ProteinSimple, San Jose, Calif.). The following criteria were used to discriminate low peptide signals from background: The peak signal-to-noise (S/N) ratio given by the software must be ≥10, and the peak height/baseline ratio (calculated manually from the peak height and baseline values given by the software) must be equal to or greater than 3. A five-point standard curve of known concentrations (100-2,000 nM) of peptide spiked in rabbit vitreous was used to calculate peptide concentration in the vitreous samples using the Compass software (Compass Software Inc., Atlanta, Ga.). […] Shown in FIG. 15 is a representative standard curve generated using the WES system and bands obtained upon running pre-determined amounts of purified peptide spiked into rabbit vitreous samples.
# To corroborate the WES-based measurements for all test compounds, an SPR-based competition assay was developed for detecting Cp40 and Cp40 analogs in biological samples. […] The samples were heated at 95° C. for 5 min. […]
# [3] = Lys cleavage fragments in NHP plasma after s.c. injection (UPLC-ESI-MS); assay type: in vivo, cynomolgus monkeys; conditions: after s.c. 2 mg/kg Cp40-KKK, both animals
# [4] = molecular target: T1, purified human C3b (Homo sapiens, UniProt P01024); assay: SPR C3b binding of Cp40-KKK in vitreous samples; conditions: for C3b-binding signal: day 14
# T1 construct: purchased Complement Technology, Inc., Tyler, Tex
# Method: To confirm that the compound present in the NHP vitreous maintains C3b-binding activity, which is a prerequisite for eliciting its inhibitory action across all complement pathways, surface plasmon resonance (SPR) binding experiments were conducted. Briefly, for a positive binding control, serial dilutions of Cp40-KKK (16, 8, 4, and 2 nM) were added to rabbit vitreous samples and flowed onto a Biacore CM5 chip immobilized with purified human C3b (Complement Technology Inc, Tyler, Tex.) (see FIG. 19A). Next, vitreous samples were collected from a Cp40-KKK injected eye at day 14 post-injection and subjected to heat-inactivation at 95° C. for 5 min. Both heat-inactivated and non-heat-inactivated samples were flowed onto a CM5 chip immobilized with purified human C3b as indicated above (FIG. 19B).
# [5] = system: classical pathway activation (C3b deposition); assay: Classical pathway activation ELISA (C3b deposition) with or without rabbit vitreous; assay type: biochemical, human; conditions: in the absence of vitreous
# Method: An alternative explanation to the one presented above is that the vitreous contains additional unidentified factors that associate with the Cp40-KKK analog. To investigate whether an unidentified vitreous factor impacts the complement inhibitory activity of lysine containing compounds, complement activation assays were performed using vitreous samples. Briefly, human plasma was incubated with OVA-anti-OVA immune-complexes in the presence of serial dilutions of the Cp40-based analogs mixed with rabbit vitreous. Levels of classical pathway activation (C3b deposition) were determined by ELISA using a polyclonal anti-human C3 antibody conjugated with HRP (MP Biomedicals, Solon, Ohio) (FIG. 20).
# [6] = Pharmacokinetics after single i.v. injection; parameters: species or system cynomolgus monkeys; conditions: cynomolgus monkey, in vivo, iv
# Method: In vivo pharmacokinetic studies were conducted, in which cynomolgus monkeys were administered single i.v. injections of mPEG(1k)-Cp40, mPEG(3k)-Cp40, Cp40-KK, or Cp40-KKK.
# [7] = Solubility of Cp40-based analogs in PBS
# [8] = Plasma concentration after multiple injections in NHP; assay type: in vivo, cynomolgus monkeys; conditions: cynomolgus monkey, sc
# [9] = Pharmacokinetics after single i.m. injection; conditions: cynomolgus monkey, in vivo, im, 25 mg/kg
# [10] = molecular target: T2, human C3b (Homo sapiens, UniProt P01024); assay: SPR binding affinity and kinetics with C3b; conditions: 25° C., 1:1 Langmuir model; read-out: ka, association constant
# T2 construct: purchased Complement Technology, Inc., Tyler, Tex
# [11] = in vivo; conditions: male, cynomolgus monkey, sc, 2 mg/kg, t1/2
# [12] = molecular target: C3 (Homo sapiens, UniProt P01024); conditions: Qu et al. 2013; cited from earlier work
# [13] = in vivo; conditions: cynomolgus monkey, im, 25 mg/kg
# [14] = physchem; conditions: pH 7.4, Conc. (solubility in PBS)
# [15] = system: C3; assay: C3 saturation in NHP plasma after single s.c. injection; assay type: in vivo, cynomolgus monkeys (Macaca fascicularis); conditions: single s.c. 2 mg/kg
# [16] = cynomolgus monkey, in vivo, sc, 2 mg/kg
# [17] = male, cynomolgus monkey, plasma, sc, 2 mg/kg, single s.c. 2 mg/kg, NHP plasma, two animals
# [18] = male, cynomolgus monkey, plasma, sc, 2 mg/kg, Cmax, single s.c. 2 mg/kg, NHP plasma, two animals
# [19] = single s.c. 2 mg/kg, NHP plasma, two animals, 2 mg/kg
# [20] = single s.c. 2 mg/kg, NHP plasma, two animals, listed as Cp40-KKK (SUM), 2 mg/kg
# [21] = at the solubility concentration
# T1 sequence (P01024 23-667 limits assumed): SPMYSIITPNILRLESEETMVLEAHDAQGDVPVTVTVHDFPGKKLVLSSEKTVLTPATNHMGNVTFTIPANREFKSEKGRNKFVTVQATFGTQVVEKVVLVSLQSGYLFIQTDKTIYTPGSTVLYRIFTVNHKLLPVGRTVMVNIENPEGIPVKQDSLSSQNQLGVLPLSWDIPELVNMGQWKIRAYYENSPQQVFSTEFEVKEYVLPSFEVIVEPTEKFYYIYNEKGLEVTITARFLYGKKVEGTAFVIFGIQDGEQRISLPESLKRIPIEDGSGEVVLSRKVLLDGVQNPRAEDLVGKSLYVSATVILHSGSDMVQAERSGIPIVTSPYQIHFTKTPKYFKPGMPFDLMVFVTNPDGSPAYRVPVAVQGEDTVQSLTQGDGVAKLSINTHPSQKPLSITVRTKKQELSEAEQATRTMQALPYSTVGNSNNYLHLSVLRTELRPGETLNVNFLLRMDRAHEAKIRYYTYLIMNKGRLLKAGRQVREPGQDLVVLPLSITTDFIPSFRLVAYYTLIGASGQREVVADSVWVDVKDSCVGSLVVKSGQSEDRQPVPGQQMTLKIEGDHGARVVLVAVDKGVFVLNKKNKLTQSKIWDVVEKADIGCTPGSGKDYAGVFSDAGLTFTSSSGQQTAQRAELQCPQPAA
# T1 sequence (P01024 749-1663 partner limits assumed): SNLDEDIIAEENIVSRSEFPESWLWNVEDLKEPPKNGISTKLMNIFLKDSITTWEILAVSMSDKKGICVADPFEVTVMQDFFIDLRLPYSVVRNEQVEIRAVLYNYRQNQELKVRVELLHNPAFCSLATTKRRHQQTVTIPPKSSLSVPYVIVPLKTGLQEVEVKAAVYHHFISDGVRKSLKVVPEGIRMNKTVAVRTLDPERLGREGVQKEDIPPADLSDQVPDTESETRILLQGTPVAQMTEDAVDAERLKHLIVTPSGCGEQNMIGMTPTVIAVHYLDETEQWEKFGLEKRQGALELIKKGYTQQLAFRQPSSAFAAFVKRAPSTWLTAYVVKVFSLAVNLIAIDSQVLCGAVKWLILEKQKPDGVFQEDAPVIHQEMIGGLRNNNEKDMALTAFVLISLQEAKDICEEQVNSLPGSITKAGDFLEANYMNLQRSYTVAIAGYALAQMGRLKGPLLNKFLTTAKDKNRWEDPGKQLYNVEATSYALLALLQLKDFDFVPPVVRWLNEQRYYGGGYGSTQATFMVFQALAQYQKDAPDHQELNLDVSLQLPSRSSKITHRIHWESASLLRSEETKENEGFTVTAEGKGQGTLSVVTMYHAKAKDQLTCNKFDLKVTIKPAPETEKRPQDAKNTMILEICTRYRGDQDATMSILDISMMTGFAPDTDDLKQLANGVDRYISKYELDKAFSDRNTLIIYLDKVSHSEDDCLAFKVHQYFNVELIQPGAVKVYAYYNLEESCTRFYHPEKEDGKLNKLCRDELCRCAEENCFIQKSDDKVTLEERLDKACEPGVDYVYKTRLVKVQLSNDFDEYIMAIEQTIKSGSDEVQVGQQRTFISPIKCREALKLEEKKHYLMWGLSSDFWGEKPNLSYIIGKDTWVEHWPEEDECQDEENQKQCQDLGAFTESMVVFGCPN
# C3 (Homo sapiens, UniProt P01024), sequence (P01024 23-1663): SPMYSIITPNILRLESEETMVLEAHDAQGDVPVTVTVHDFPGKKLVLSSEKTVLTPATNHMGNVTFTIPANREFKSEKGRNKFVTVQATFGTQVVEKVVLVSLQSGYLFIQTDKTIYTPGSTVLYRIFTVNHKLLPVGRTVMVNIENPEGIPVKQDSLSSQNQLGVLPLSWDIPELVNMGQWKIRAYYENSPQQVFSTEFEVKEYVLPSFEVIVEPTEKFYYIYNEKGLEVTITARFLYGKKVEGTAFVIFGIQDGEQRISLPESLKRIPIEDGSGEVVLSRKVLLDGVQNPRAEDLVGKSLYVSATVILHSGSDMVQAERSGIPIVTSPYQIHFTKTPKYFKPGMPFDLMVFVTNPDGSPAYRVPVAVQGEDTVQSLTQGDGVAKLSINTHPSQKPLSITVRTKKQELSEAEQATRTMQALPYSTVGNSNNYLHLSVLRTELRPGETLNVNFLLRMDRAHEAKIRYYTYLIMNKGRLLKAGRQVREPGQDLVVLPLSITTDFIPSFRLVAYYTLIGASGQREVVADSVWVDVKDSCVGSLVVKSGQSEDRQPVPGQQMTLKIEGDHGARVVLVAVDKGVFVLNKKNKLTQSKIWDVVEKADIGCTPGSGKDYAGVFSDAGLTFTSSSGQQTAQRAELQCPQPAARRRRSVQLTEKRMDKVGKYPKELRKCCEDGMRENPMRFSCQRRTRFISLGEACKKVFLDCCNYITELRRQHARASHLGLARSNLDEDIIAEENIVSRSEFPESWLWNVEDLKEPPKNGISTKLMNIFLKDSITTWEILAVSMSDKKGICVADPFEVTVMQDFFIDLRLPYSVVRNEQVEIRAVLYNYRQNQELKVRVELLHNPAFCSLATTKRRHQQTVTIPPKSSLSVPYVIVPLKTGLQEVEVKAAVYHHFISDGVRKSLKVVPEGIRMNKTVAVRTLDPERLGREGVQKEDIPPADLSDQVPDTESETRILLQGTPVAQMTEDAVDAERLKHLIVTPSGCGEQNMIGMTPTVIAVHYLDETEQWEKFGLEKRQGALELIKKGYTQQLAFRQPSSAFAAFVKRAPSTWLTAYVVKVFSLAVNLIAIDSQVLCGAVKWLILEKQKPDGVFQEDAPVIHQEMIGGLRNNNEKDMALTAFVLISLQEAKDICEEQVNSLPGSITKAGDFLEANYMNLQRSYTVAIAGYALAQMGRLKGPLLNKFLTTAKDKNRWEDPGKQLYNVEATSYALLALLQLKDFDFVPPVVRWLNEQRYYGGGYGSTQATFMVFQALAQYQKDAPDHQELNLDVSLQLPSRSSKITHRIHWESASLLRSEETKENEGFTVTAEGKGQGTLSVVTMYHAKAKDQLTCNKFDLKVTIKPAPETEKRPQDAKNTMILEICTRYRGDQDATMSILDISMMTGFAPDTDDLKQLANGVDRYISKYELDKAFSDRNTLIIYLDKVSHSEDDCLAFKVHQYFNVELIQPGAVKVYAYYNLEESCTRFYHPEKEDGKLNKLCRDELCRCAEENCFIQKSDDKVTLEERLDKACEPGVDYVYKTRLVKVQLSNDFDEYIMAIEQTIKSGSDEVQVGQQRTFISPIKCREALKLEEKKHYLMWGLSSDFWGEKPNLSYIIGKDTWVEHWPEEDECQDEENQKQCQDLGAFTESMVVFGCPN
# T2 sequence (P01024 23-667 limits assumed): as the sequence (P01024 23-667 limits assumed) above
# T2 sequence (P01024 749-1663 partner limits assumed): as the sequence (P01024 749-1663 partner limits assumed) above
molecule,measurement,setting,value
"CC[C@H](C)[C@H](NC(=O)[C@H](N)Cc1ccc(O)cc1)C(=O)N[C@H]1CSSC[C@@H](C(=O)N(C)[C@H](C(=O)N[C@@H](CCCCN)C(=O)N[C@@H](CCCCN)C(=O)N[C@@H](CCCCN)C(N)=O)[C@@H](C)CC)NC(=O)[C@H](CCCNC(=N)N)NC(=O)[C@H](Cc2c[nH]cn2)NC(=O)[C@H](C)NC(=O)CN(C)C(=O)[C@H](Cc2c[nH]c3ccccc23)NC(=O)[C@H](CC(=O)O)NC(=O)[C@H](CCC(N)=O)NC(=O)[C@H](Cc2cn(C)c3ccccc23)NC(=O)[C@H](C(C)C)NC1=O [Cp40-KKK, DTyr-Ile-[Cys-Val-Trp(Me)-Gln-Asn-Trp-Sar-Ala-His-Arg-Cys]-mIle-Lys-Lys-Lys-NH2]",CL/F,"[1]; male, cynomolgus monkey, plasma, sc, 2 mg/kg",~45 mL/min/kg
same,AUC(0-t),[1]; [17],~616 µM·h
same,AUC(0-inf),[1]; [17],805 µM·h
same,Cmax,[1]; [18],~13.5 µM
same,half-life,"[1]; male, cynomolgus monkey, plasma, sc, 2 mg/kg, t1/2, single s.c. 2 mg/kg, NHP plasma, two animals",~44.3 h
same,AUC0-t increased vs Cp40,[1]; s.c. 2 mg/kg,~2.6 fold
same,CL/F decreased vs Cp40,[1]; s.c. 2 mg/kg,~3 fold
same,cmax higher than Cp40,[1]; s.c. 2 mg/kg,~2 fold
same,t1/2,[1]; [19],42 h and 47 h
same,AUC0-t (0-120 h),[1]; [20],658 µM·h and 573 µM·h
same,AUCinf,[1]; [20],685 µM·h
same,Cmax,[1]; [20],11.9 µM and 15.1 µM
same,t1/2,[1]; [20],46.7 h and 41.8 h
same,intravitreal residence time,[2]; after i.v.t.,≥ 3 months
same,vitreous residence time at C3 saturating levels,[2]; single i.v.t. injection 0.5 mg,≥ 90 days
same,detection in the vitreous at time points post-injection,[2]; single i.v.t. injection 0.5 mg,detected even at day 90 post-treatment
same,concentration of intact Cp40-KKK in plasma at any time point,[3],≤ 2 µM
same,C3b-binding signal,[4]; heat-inactivated vitreous sample,10 relative units
same,C3b-binding signal,[4]; non-heat inactivated vitreous sample,2 relative units
same,binding to C3b,"[4]; spiked into rabbit vitreous, 2-16 nM",binds to C3b in a dose-dependent manner
same,C3b-binding activity of compound present in NHP vitreous,"[4]; vitreous from injected eye, day 14 post-injection",maintains its C3b-binding activity
same,complement classical pathway inhibitory activity,[5],inhibitory activity in a dose-dependent manner
same,Lys cleavage in plasma upon i.v. injection,[6],metabolized into Cp40-KK and small amounts of Cp40-K
same,half-life,[6]; single i.v. injection 2 mg/kg,35.3 h
same,AUC(0-t),"[6]; single i.v. injection 2 mg/kg, read-out: AUC 0-120",312 µM·h
same,pH of the peptide solution in PBS,[7]; after additional lyophilization from H2O,9.5
same,pH of the peptide solution in PBS,[7]; [21],8.5
same,pH of the peptide solution in PBS,[7]; pH adjusted upon addition of PBS,7.5*
same,Cmax,"[8]; plasma, 2 mg/kg every 48 hrs, read-out: observed Cmax after multiple s.c. dosing",≥ 20 µM
same,half-life,[9],~192 h
same,kon,[10],3.83e+06 M⁻¹ s⁻¹
"CC[C@H](C)[C@H](NC(=O)[C@H](N)Cc1ccc(O)cc1)C(=O)N[C@H]1CSSC[C@@H](C(=O)N(C)[C@H](C(N)=O)[C@@H](C)CC)NC(=O)[C@H](CCCNC(=N)N)NC(=O)[C@H](Cc2c[nH]cn2)NC(=O)[C@H](C)NC(=O)CN(C)C(=O)[C@H](Cc2c[nH]c3ccccc23)NC(=O)[C@H](CC(=O)O)NC(=O)[C@H](CCC(N)=O)NC(=O)[C@H](Cc2cn(C)c3ccccc23)NC(=O)[C@H](C(C)C)NC1=O [Cp40, DTyr-Ile-[Cys-Val-Trp(Me)-Gln-Asn-Trp-Sar-Ala-His-Arg-Cys]-mIle-NH2, reference compound]",half-life,[11],41 h
same,AUC(0-t),[1]; [17],233 µM·h
same,AUC(0-inf),[1]; [17],263 µM·h
same,Cmax,[1]; [18],6.2 µM
same,Tmax,"[1]; male, cynomolgus monkey, plasma, sc, 2 mg/kg, tmax, single s.c. 2 mg/kg, NHP plasma, two animals",2 h
same,AUC0-t (0-120 h),[1]; [19],218 µM·h
same,AUCinf,[1]; [19],255 µM·h
same,Cmax,[1]; [19],5.53 µM
same,binding affinity for C3,[12],subnanomolar
same,binding affinity for C3 higher than that of the parent peptide,[12],"~6,000 fold"
same,detection in the vitreous,[2]; Cp40 i.v.t administered,no detection of any compound was observed after one month
same,half-life,[13],~192 h
same,complement classical pathway inhibitory activity,[5],inhibitory activity in a dose-dependent manner
same,pH of the peptide solution in PBS,[7]; [21],7.5
same,solubility,[14],≥ 1.08 mg/mL
same,Cmax,"[8]; in vivo, 4 mg/kg",8 to 10 µM
mPEG(3k)-Cp40: N-terminus of Cp40 coupled to polydisperse PEG chain of 3 kDa via amide coupling,detection in the vitreous at time points post-injection,[2]; single i.v.t. injection 0.5 mg,detected at day 14 post injection but not in later time points
same,C3 saturation time (peptide above plasma level of C3),[15],~34 h
same,CL/F,[16],~43.5 mL/min/kg
same,Conc. (solubility in PBS),[7]; PBS (pH 7.4),270 mg/mL
same,pH of the peptide solution in PBS,[7]; [21],7
